Numbers after ± are expanded uncertainties.
What was measured:
[1] = 101.33 kPa, Liquid, Vibrating tube method
[2] = xn = mol fraction of the nth substance listed; settings: 100 kPa, Liquid, Vibrating tube method

CCCCO [butan-1-ol]
[1]
Settings	mass density [kg/m3]
293.15 K	809.77 ± 4
298.15 K	805.92 ± 4
303.15 K	802 ± 4
308.15 K	798.14 ± 4
313.15 K	794.24 ± 4
318.15 K	790.2 ± 4
323.15 K	786.21 ± 4

CCCO [propan-1-ol]
[1]
Settings	mass density [kg/m3]
293.15 K	803.77 ± 4
298.15 K	799.69 ± 4
303.15 K	795.58 ± 4
308.15 K	791.52 ± 4
313.15 K	787.42 ± 4
318.15 K	783.17 ± 4
323.15 K	778.96 ± 4

NCCO [2-aminoethan-1-ol]
[1]
Settings	mass density [kg/m3]
293.15 K	1016.47 ± 4
298.15 K	1012.53 ± 4
303.15 K	1008.47 ± 4
308.15 K	1004.49 ± 4
313.15 K	1000.5 ± 4
318.15 K	996.39 ± 4
323.15 K	992.41 ± 4

CC(C)(C)O [2-methylpropan-2-ol]
[1]
Settings	mass density [kg/m3]
298.15 K	780.61 ± 4
303.15 K	775.42 ± 4
308.15 K	770.21 ± 4
313.15 K	764.92 ± 4
318.15 K	759.42 ± 4
323.15 K	753.95 ± 4

CCO [ethanol]
[1]
Settings	mass density [kg/m3]
293.15 K	789.4 ± 4
298.15 K	785.13 ± 4
303.15 K	780.75 ± 4
308.15 K	776.41 ± 4
313.15 K	772.04 ± 4
318.15 K	767.52 ± 4
323.15 K	763.04 ± 4

CC(C)CO [2-methyl-1-propanol]
[1]
Settings	mass density [kg/m3]
293.15 K	801.85 ± 4
298.15 K	797.99 ± 4
303.15 K	794.03 ± 4
308.15 K	790.09 ± 4
313.15 K	786.12 ± 4
318.15 K	781.97 ± 4
323.15 K	777.86 ± 4

CC(C)O [propan-2-ol]
[1]
Settings	mass density [kg/m3]
293.15 K	785.1 ± 4
298.15 K	780.91 ± 4
303.15 K	776.57 ± 4
308.15 K	772.24 ± 4
313.15 K	767.82 ± 4
318.15 K	763.19 ± 4
323.15 K	758.55 ± 4

NCCO [2-aminoethan-1-ol] + CC(C)O
mass density [kg/m3], [2]
Settings	x1 = 0.0986	x1 = 0.1974	x1 = 0.2966	x1 = 0.3961	x1 = 0.496	x1 = 0.5961	x1 = 0.6966	x1 = 0.7974	x1 = 0.8985	x1 = 1
293.15 K	804.43 ± 5.6	824.39 ± 5.7	844.97 ± 6	868.88 ± 6.2	891.61 ± 6.2	915.69 ± 6.2	939.56 ± 6.3	965.29 ± 6.4	989.95 ± 6.5	1016.47 ± 4
298.15 K	800.28 ± 5.7	820.25 ± 5.7	840.83 ± 6	864.78 ± 6.2	887.55 ± 6.2	911.65 ± 6.2	935.53 ± 6.3	961.29 ± 6.4	985.96 ± 6.5	1012.53 ± 4
303.15 K	795.98 ± 5.7	815.98 ± 5.7	836.58 ± 6	860.58 ± 6.2	883.37 ± 6.2	907.48 ± 6.2	931.4 ± 6.4	957.17 ± 6.4	981.86 ± 6.5	1008.47 ± 4
308.15 K	791.72 ± 5.7	811.76 ± 5.7	832.38 ± 6	856.42 ± 6.2	879.25 ± 6.2	903.38 ± 6.2	927.32 ± 6.4	953.13 ± 6.4	977.84 ± 6.5	1004.49 ± 4
313.15 K	787.39 ± 5.7	807.48 ± 5.7	828.13 ± 6	852.23 ± 6.2	875.1 ± 6.2	899.25 ± 6.2	923.23 ± 6.4	949.07 ± 6.4	973.81 ± 6.5	1000.5 ± 4
318.15 K	782.87 ± 5.7	803.04 ± 5.8	823.74 ± 6	847.9 ± 6.2	870.82 ± 6.2	895 ± 6.2	919 ± 6.4	944.88 ± 6.4	969.66 ± 6.5	996.39 ± 4
323.15 K	778.38 ± 5.7	798.63 ± 5.8	819.42 ± 6	843.64 ± 6.2	866.61 ± 6.2	890.84 ± 6.3	914.87 ± 6.4	940.8 ± 6.4	965.62 ± 6.5	992.41 ± 4

CCO [ethanol] + NCCO
[2], x2 = 0
Settings	mass density [kg/m3]
293.15 K	789.4 ± 4
298.15 K	785.13 ± 4
303.15 K	780.75 ± 4
308.15 K	776.41 ± 4
313.15 K	772.04 ± 4
318.15 K	767.52 ± 4
323.15 K	763.04 ± 4

NCCO [2-aminoethan-1-ol] + CC(C)CO
mass density [kg/m3], [2]
Settings	x1 = 0.1188	x1 = 0.2328	x1 = 0.3421	x1 = 0.4472	x1 = 0.5482	x1 = 0.6454	x1 = 0.739	x1 = 0.8291	x1 = 0.9161	x1 = 1
293.15 K	819.76 ± 5.2	840.36 ± 5.4	859.83 ± 5.5	880.16 ± 5.7	901.41 ± 5.9	923.2 ± 6.2	946.54 ± 6.2	967.04 ± 6.5	992.18 ± 7	1016.47 ± 4
298.15 K	815.85 ± 5.2	836.42 ± 5.4	855.88 ± 5.5	876.22 ± 5.7	897.44 ± 5.9	919.26 ± 6.2	942.54 ± 6.2	963.08 ± 6.5	988.22 ± 7	1012.53 ± 4
303.15 K	811.84 ± 5.2	832.41 ± 5.4	851.83 ± 5.5	872.2 ± 5.7	893.38 ± 5.9	915.22 ± 6.2	938.44 ± 6.2	959.04 ± 6.5	984.12 ± 7	1008.47 ± 4
308.15 K	807.88 ± 5.2	828.46 ± 5.4	847.85 ± 5.5	868.25 ± 5.7	889.39 ± 5.9	911.26 ± 6.2	934.38 ± 6.2	955.07 ± 6.5	980.15 ± 7	1004.49 ± 4
313.15 K	803.87 ± 5.2	824.49 ± 5.4	843.85 ± 5.5	864.27 ± 5.7	885.38 ± 5.9	907.27 ± 6.2	930.38 ± 6.2	951.07 ± 6.5	976.15 ± 7	1000.5 ± 4
318.15 K	799.72 ± 5.2	820.35 ± 5.4	839.71 ± 5.5	860.15 ± 5.7	881.25 ± 5.9	903.15 ± 6.2	926.19 ± 6.2	946.97 ± 6.5	972.04 ± 7	996.39 ± 4
323.15 K	795.62 ± 5.2	816.29 ± 5.4	835.65 ± 5.5	856.12 ± 5.7	877.2 ± 5.9	899.14 ± 6.2	922.11 ± 6.2	942.97 ± 6.5	968.05 ± 7	992.41 ± 4

Reference: the NIST ThermoML archive (doi:10.1016/j.jct.2019.01.025)
